Legend:
[1] = tested on: α-SMA expression in MRC5 cells; assay: inhibition of α-SMA expression in MRC5 cells, image screening method; format: cell-based; conditions: Homo sapiens; MRC5, compound 10 μM, TGF-β1 5 ng/mL, 72 hours, relative to TGF-β1 alone; read-out: Inhibitory activity (α-SMA expression inhibition)
How it was run: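 MRC5 cells exposed to compound (10 μM) or DMSO with TGF-β1 (5 ng/mL) for 72 h, then fixed, permeabilised, blocked and immunostained for α-SMA (FITC) and GAPDH. Image-based quantitation; α-SMA level with compound plus TGF-β1 expressed relative to TGF-β1 alone.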

[2] = tested on: IL-6 secretion by M1 macrophages derived from THP-1; assay: IL-6 secretion by LPS-activated THP-1-derived M1 macrophages (cytometric bead array); format: cell-based, human; conditions: LPS 10 ng/mL 6 hours, compound 1 μM or 10 μM, FIG. 3
Description: IL-6 is one of the pro-inflammatory cytokines secreted by activated macrophages, M1 macrophages, and is a potent trigger of fibrosis. Therefore, to evaluate the inhibitory activity of the compounds according to the present invention to inhibit pulmonary fibrosis through the inhibition of inflammatory effects, the extent of IL-6 secretion by macrophages after treatment of activated macrophages with the compounds was compared.
First, macrophages were prepared through the following process: 1 mL of a medium containing 5×10^5 cells/mL of THP-1 cells (Korean Cell Line Bank; KCLB NO. 40202) grown in a complete medium (a medium in which Roswell Park Memorial Institute [RPMI] is supplemented with 10% [vol/vol] fetal bovine serum [FBS] and 1% [vol/vol] penicillin/streptomycin [P/S]) was dispensed by 1 mL into each well of a 12-well plate. […]
Subsequently, the measurement of a cytokine level was performed through the following process: the secured complete medium was centrifuged at 13,000 RPM for 10 minutes in a 4° C. centrifuge, and then a supernatant was transferred to a new 1.5 mL microcentrifuge tube. […] The amount of IL-6 binding to the beads was measured using a Novocyte 3000 flow cytometer (Agilent).

F-actin in MRC5 cells = assay: inhibition of F-actin formation in TGF-β1-treated MRC5 cells (confocal imaging); format: cell-based, human; conditions: TGF-β1 5 ng/mL, 70 hours; for intracellular F-actin formation: MRC5, compound 10 μM, FIGS. 2C, 2D
Description: (§1) It is known that when the process of pulmonary fibrosis results in structural changes in cells, the level of F-actin increases. Therefore, to confirm the therapeutic efficacy of the compounds of the present invention for pulmonary fibrosis-related diseases, the structural changes of cells after treating fibrosis-induced MRC5 with the compounds of the present invention were measured by the degree of inhibition of F-actin and α-SMA formation.
(§2) Specifically, MRC5 cells were treated with Compound 32 (10 μM) or Compound 42 (10 μM) according to the present invention, CK-666 (actin polymerization inhibitor, 10 μM), nintedanib (1 μM), or DMSO, which had been dissolved in a 0.5% fetal bovine serum (FBS)-containing medium, and 2 hours later, the cells were treated with TGF-β1 (5 ng/mL) to cause fibrosis. Due to strong cytotoxicity of the drug of nintedanib, all cells die when treated with nintedanib at the same concentration (10 μM) as that of the compound of the present invention, so it is impossible to conduct a comparative experiment. Therefore, the effect was confirmed by treating the cells with 1 μM nintedanib. 70 hours later, the cells were fixed with a 2% paraformaldehyde solution for 10 minutes, treated with a 0.1% Triton X-100 solution for 10 minutes to provide cell membrane permeability, and treated with a 1% bovine serum albumin (BSA) solution to prevent non-specific binding. […] High-resolution F-actin images acquired with a STELLARIS 5 confocal microscope (Leica) were quantitatively represented by standardizing F-actin stained with rhodamine phalloidin using Alexa Fluor™ Plus 488-labeled GAPDH using self-developed analysis software through programming. […] High-resolution α-SMA images acquired with a STELLARIS 5 confocal microscope (Leica) were quantitatively represented by standardizing α-SMA stained with an anti-α-SMA-FITC antibody with Alexa Fluor™ Plus 488-labeled GAPDH using self-developed analysis software through programming.

α-SMA in MRC5 cells = assay: inhibition of α-SMA formation in TGF-β1-treated MRC5 cells (confocal imaging); format: cell-based, human; conditions: TGF-β1 5 ng/mL, 70 hours; for intracellular α-SMA formation: MRC5, compound 10 μM, FIGS. 2A, 2B
Description: as §1, §2

[3] = cited from earlier work; for lung function improvement: clinical use as therapeutic drug for pulmonary fibrosis
MRC5 cells = assay: cytotoxicity in MRC5 cells; format: cell-based, human; conditions: 10 μM
[4] = tested on: α-SMA expression in MRC5 cells; conditions: stated as known; cited from earlier work

Compound | inhibition at 10 µM [1] [%] | IL-6 production [2] | intracellular F-actin formation (F-actin in MRC5 cells) | intracellular α-SMA formation (α-SMA in MRC5 cells) | lung function improvement [3] | also measured
CC(C)CN1CCC(NC(=O)N2CCN(c3ccc(F)cc3)c3cc(F)ccc32)CC1 [Compound 32, 6-fluoro-4-(4-fluorophenyl)-N-(1-isobutylpiperidin-4-yl)-3,4-dihydroquinoxaline-1(2H)-carboxamide] | ≥ 70 | decrease | decreased to a level similar to that in the group not treated with TGF-β1 | decreased to a level similar to that in the group not treated with TGF-β1 |  | 
CC(C)N1CC(NC(=O)N2CCN(c3ccc(F)cc3)c3cc(F)ccc32)C1 [Compound 42, 6-fluoro-4-(4-fluorophenyl)-N-(1-isopropylazetidin-3-yl)-3,4-dihydroquinoxaline-1(2H)-carboxamide] | 50 to 70 | decrease | decreased to a level similar to that in the group not treated with TGF-β1 | decreased to a level similar to that in the group not treated with TGF-β1 |  | 
CC(C)(C)CC(=O)N1CCN(C(=O)NCC2CCNCC2)c2ccccc21 [Compound 130, 4-(3,3-dimethylbutanoyl)-N-(piperidin-4-ylmethyl)-3,4-dihydroquinoxaline-1(2H)-carboxamide] | 10 to 30 |  |  |  |  | 
Cc1ccc(=O)n(-c2ccccc2)c1 [Pirfenidone] |  |  |  |  | about 10% | 
COC(=O)c1ccc2c(c1)NC(=O)/C2=C(\Nc1ccc(N(C)C(=O)CN2CCN(C)CC2)cc1)c1ccccc1 [nintedanib] |  |  |  |  | about 10% | therapeutic effect ([3]; IPF treatment, stated as known): 10%; cytotoxicity (MRC5 cells): all cells die; α-SMA inhibitory activity [4]: 0%; F-actin formation (F-actin in MRC5 cells; MRC5, nintedanib 1 μM): did not inhibit; effect of inhibiting α-SMA formation (α-SMA in MRC5 cells; MRC5, nintedanib 1 μM): lower than Compounds 32 and 42

From patent publication US20260265189A1, “NOVEL COMPOUND, AND PHARMACEUTICAL COMPOSITION COMPRISING SAME AS ACTIVE INGREDIENT” (SAPIENSBIO INC., priority 2022, published 2026)
